11 compounds from ChEMBL document CHEMBL1201862, “PubChem BioAssay data set” (2004) can be followed below.

Some test systems named below: COLO 205; HL-60; HCT-116; DU-145; RPMI-8226; HOP-62; 786-0; SF-539; M14; SF-268; SK-OV-3; MDA-MB-435; NCI-H460; K562; SK-MEL-28; HT-29; T47D; Malme-3M; BT-549.
Common to all, as to assay: NCI anticancer screen, dose series, 48 h

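Following 48 hours of exposure in 96-well plates, responses at five concentrations were used to interpolate endpoints linearly. Here, GI50 denotes the concentration required for 50% inhibition of growth.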 Activity calls are given as the source filed them. No stated cut-off is given here; in the data, active = GI50 up to about 1.1 µM and inactive = higher. Bounds are passed on as bounds.

Consider `CC(=O)c1sc2c(c1OC(=O)c1ccc(Cl)cc1Cl)c(=O)n(-c1ccccc1)c(=S)n2-c1ccccc1`, for which the GI50 in the assay with COLO 205 is 1.07 µM (active); in the assay with HL-60, 3.81 µM (inactive); with HCT-116 it was 2.96 µM (inactive); in the assay with DU-145, 21.7 µM (inactive); in the assay on RPMI-8226, 0.213 µM (active); in the assay with HOP-62, 1.41 µM (inactive). Moreover, the GI50 is 0.47 µM (active) in the assay with 786-0; 0.251 µM (active) in the assay with SF-539; 0.303 µM (active) with M14; 0.552 µM (active) in the assay on SF-268; 0.3 µM (active) in the assay on SK-OV-3; 1 µM (active) in the assay with MDA-MB-435. Also, the GI50 was 1.99 µM (inactive) with NCI-H460; 4.32 µM (inactive) in the assay on K562; 0.475 µM (active) in the assay on SK-MEL-28; 0.28 µM (active) in the assay on HT-29; 9.27 µM (inactive) in the assay with T47D; 0.252 µM (active) in the assay with Malme-3M.

On to `C/C=C1\CN(C(=O)OC(C)(C)C)C1C(=O)OC(C)(C)C` (stereo not drawn), for which the GI50 with COLO 205 was > 100 µM (inactive); in the assay with HL-60, 21.3 µM (inactive); with HCT-116, > 100 µM (inactive); with RPMI-8226 it was 68.7 µM (inactive); in the assay with HOP-62, > 100 µM (inactive); in the assay on 786-0, > 100 µM (inactive). For the same compound, the GI50 with BT-549, with SF-539, with M14, in the assay on SF-268, in the assay on SK-OV-3 and in the assay with MDA-MB-435 was > 100 µM (inactive) throughout. The GI50 in the assay on NCI-H460, with K562, in the assay on SK-MEL-28, in the assay with HT-29 and in the assay with Malme-3M was > 100 µM (inactive) in each case.

For the compound `CC1(C)OC(CCO)CN1C(=O)OCc1ccccc1` (stereo not drawn), the GI50 in the assay on COLO 205, with HL-60, in the assay on HCT-116, with DU-145, in the assay on RPMI-8226 and with 786-0 was > 100 µM (inactive) each time. In addition, the GI50 in the assay with BT-549 is 33.6 µM (inactive); in the assay with SF-539, > 100 µM (inactive); in the assay with M14 it was > 100 µM (inactive); in the assay with SK-OV-3, > 100 µM (inactive); in the assay with MDA-MB-435, > 100 µM (inactive); in the assay with NCI-H460 it was > 100 µM (inactive). Also, the GI50 in the assay on K562, in the assay with SK-MEL-28 and with Malme-3M was > 100 µM (inactive) each time.

On to `Cc1cccc2c(N)c3cccc(C(=O)NCC[N+](C)(C)Cc4ccccc4[N+](=O)[O-])c3nc12`, for which the GI50 in the assay on COLO 205 was 9.02 µM (inactive); in the assay with HCT-116 it was 5.92 µM (inactive); in the assay on DU-145, 8.69 µM (inactive); with RPMI-8226 it was 4.84 µM (inactive); in the assay on HOP-62 it was 7.48 µM (inactive); in the assay on 786-0 it was 4.22 µM (inactive). Further, the GI50 in the assay with SF-539 is 7.94 µM (inactive); in the assay on M14, 9.62 µM (inactive); with SF-268, 5.12 µM (inactive); in the assay with SK-OV-3, 12.6 µM (inactive); in the assay on MDA-MB-435, 21.1 µM (inactive); with NCI-H460, 2.24 µM (inactive). Besides, the GI50 in the assay on K562 was 4.72 µM (inactive); in the assay with SK-MEL-28, 29.7 µM (inactive); in the assay on HT-29, 5.22 µM (inactive); in the assay on T47D it was 14.2 µM (inactive); in the assay with Malme-3M, 6.76 µM (inactive).

Regarding `CN(C)c1ccc(-c2c(C#N)c(O)n(NS(=O)(=O)c3ccccc3)c(=O)c2C#N)cc1`, the GI50 with COLO 205, in the assay on HL-60, in the assay with HCT-116, with RPMI-8226, in the assay on HOP-62 and in the assay on 786-0 was > 100 µM (inactive) throughout. Further, the GI50 was > 100 µM (inactive) in the assay with BT-549; > 100 µM (inactive) in the assay on SF-539; 0.643 µM (active) with M14; > 100 µM (inactive) in the assay on SF-268; 0.377 µM (active) in the assay with SK-OV-3; > 100 µM (inactive) in the assay on MDA-MB-435. For the same compound, the GI50 in the assay with NCI-H460, with K562, in the assay with SK-MEL-28, in the assay on HT-29 and in the assay with Malme-3M was > 100 µM (inactive) throughout.

With `COc1ccc(/N=[N+](\[O-])c2ccc(OC)cc2)cc1`, the GI50 in the assay on COLO 205, with HCT-116, in the assay with DU-145, in the assay on RPMI-8226, with HOP-62 and with 786-0 was > 100 µM (inactive) throughout. Further, the GI50 in the assay on BT-549, in the assay on M14, in the assay with SF-268, in the assay on SK-OV-3, in the assay with MDA-MB-435 and in the assay with NCI-H460 was > 100 µM (inactive) each time. The GI50 in the assay with K562, with SK-MEL-28, in the assay with HT-29 and in the assay with Malme-3M was > 100 µM (inactive) each time.

Regarding `O=C1c2ccccc2C2=Cc3ccccc3C(O)N12` (stereo not drawn), the GI50 in the assay with COLO 205 is > 100 µM (inactive); in the assay on HL-60, 26.2 µM (inactive); in the assay on HCT-116, > 100 µM (inactive); in the assay with DU-145, > 100 µM (inactive); in the assay with RPMI-8226, 55.3 µM (inactive); in the assay with HOP-62, > 100 µM (inactive). Moreover, the GI50 in the assay with 786-0, with SF-539, in the assay on M14, with SF-268, with SK-OV-3 and in the assay on MDA-MB-435 was > 100 µM (inactive) in each case. For the same compound, the GI50 with NCI-H460 was > 100 µM (inactive); in the assay on K562, 36.1 µM (inactive); in the assay on SK-MEL-28, 37.1 µM (inactive); with HT-29 it was > 100 µM (inactive); in the assay on T47D, 70.5 µM (inactive); in the assay on Malme-3M, > 100 µM (inactive).

For `CCN1C(=O)/C(=C2\SC(c3ccccc3)(c3ccccc3)c3ccccc32)SC1=S`, the GI50 was 64.4 µM (inactive) in the assay with COLO 205; 47 µM (inactive) in the assay on HCT-116; > 100 µM (inactive) in the assay with DU-145; > 100 µM (inactive) in the assay with RPMI-8226; 27.5 µM (inactive) with HOP-62; 43.3 µM (inactive) with 786-0. In addition, the GI50 is 43.9 µM (inactive) in the assay with BT-549; 46.7 µM (inactive) with SF-539; 93.1 µM (inactive) in the assay on M14; 36.3 µM (inactive) with SF-268; > 100 µM (inactive) with SK-OV-3; > 100 µM (inactive) in the assay on MDA-MB-435. Moreover, the GI50 in the assay with NCI-H460 was > 100 µM (inactive); in the assay on K562, > 100 µM (inactive); in the assay on SK-MEL-28, 94.2 µM (inactive); in the assay on HT-29, > 100 µM (inactive); with Malme-3M, > 100 µM (inactive).

Turning to `CC(=O)NC(CCCOC(C)=O)C(=O)NC(CCCOC(C)=O)C(=O)NC(CCCOC(C)=O)C(=O)NC(Cc1ccc([N+](=O)[O-])cc1)C(=O)NCC(=O)OCc1ccccc1` (stereo not drawn), the GI50 with COLO 205, in the assay with HCT-116, in the assay on DU-145, in the assay on RPMI-8226, in the assay on HOP-62 and with 786-0 was > 100 µM (inactive) each time. In addition, the GI50 in the assay with SF-539, in the assay on M14, with SF-268, in the assay on SK-OV-3, with MDA-MB-435 and in the assay with NCI-H460 was > 100 µM (inactive) each time. The GI50 with K562, in the assay with SK-MEL-28, in the assay on HT-29, with T47D and in the assay on Malme-3M was > 100 µM (inactive) throughout.

With `N#CC1Nc2ccccc2[C@@H](O)C1O` (stereo partly drawn), the GI50 in the assay with COLO 205, in the assay on HL-60, with HCT-116, in the assay with DU-145, in the assay with RPMI-8226 and in the assay on HOP-62 was > 100 µM (inactive) in each case. Besides, the GI50 with 786-0, with SF-539, in the assay with M14, in the assay on SF-268, in the assay with SK-OV-3 and in the assay on MDA-MB-435 was > 100 µM (inactive) throughout. For the same compound, the GI50 in the assay on NCI-H460, with K562, with SK-MEL-28, in the assay on HT-29, in the assay with T47D and with Malme-3M was > 100 µM (inactive) each time.

For the compound `CCN(CC)CCCOc1cc2c(cc1OC)C(=O)N1CCC[C@H]1C=N2`, the GI50 is 19.8 µM (inactive) with COLO 205; 30.1 µM (inactive) in the assay with HL-60; 32.4 µM (inactive) with HCT-116; 35.2 µM (inactive) in the assay on DU-145; 21.1 µM (inactive) with RPMI-8226; 23.3 µM (inactive) in the assay on HOP-62. Also, the GI50 is 30.5 µM (inactive) with 786-0; 26.9 µM (inactive) in the assay with BT-549; 42.7 µM (inactive) in the assay with SF-539; 30.2 µM (inactive) with M14; 41.4 µM (inactive) in the assay on SF-268; 39.7 µM (inactive) in the assay with SK-OV-3. The GI50 in the assay on MDA-MB-435 was 22.5 µM (inactive); in the assay on NCI-H460, 97.7 µM (inactive); in the assay with K562, 37.5 µM (inactive); with SK-MEL-28 it was 18.1 µM (inactive); in the assay on HT-29, 17.8 µM (inactive); in the assay with Malme-3M it was 42.5 µM (inactive).
